Laboratory results reported in PubChem BioAssay AID1645862 (Buhrlage Lab, Dana-Farber Cancer Institute and Novartis …, 2021).
The source made the active and inactive calls. The rule behind the calls is not given here.

The molecules below were run against Ubiquitin carboxyl-terminal hydrolase 8 (Homo sapiens) (UniProt P40818) (assay: Ubiquitin-specific protease 8 inhibitors, concentration-effect, biochemical, validation of initial actives (AID 1645862;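 note: potency reflects inhibition of USP8 cleavage of a ubiquitin rhodamine substrate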)). Conditions: recombinant USP8 deubiquitinase activity assay.
Ubiquitin carboxyl-terminal hydrolase 8 (Homo sapiens), sequence (P40818 whole entry, looked up): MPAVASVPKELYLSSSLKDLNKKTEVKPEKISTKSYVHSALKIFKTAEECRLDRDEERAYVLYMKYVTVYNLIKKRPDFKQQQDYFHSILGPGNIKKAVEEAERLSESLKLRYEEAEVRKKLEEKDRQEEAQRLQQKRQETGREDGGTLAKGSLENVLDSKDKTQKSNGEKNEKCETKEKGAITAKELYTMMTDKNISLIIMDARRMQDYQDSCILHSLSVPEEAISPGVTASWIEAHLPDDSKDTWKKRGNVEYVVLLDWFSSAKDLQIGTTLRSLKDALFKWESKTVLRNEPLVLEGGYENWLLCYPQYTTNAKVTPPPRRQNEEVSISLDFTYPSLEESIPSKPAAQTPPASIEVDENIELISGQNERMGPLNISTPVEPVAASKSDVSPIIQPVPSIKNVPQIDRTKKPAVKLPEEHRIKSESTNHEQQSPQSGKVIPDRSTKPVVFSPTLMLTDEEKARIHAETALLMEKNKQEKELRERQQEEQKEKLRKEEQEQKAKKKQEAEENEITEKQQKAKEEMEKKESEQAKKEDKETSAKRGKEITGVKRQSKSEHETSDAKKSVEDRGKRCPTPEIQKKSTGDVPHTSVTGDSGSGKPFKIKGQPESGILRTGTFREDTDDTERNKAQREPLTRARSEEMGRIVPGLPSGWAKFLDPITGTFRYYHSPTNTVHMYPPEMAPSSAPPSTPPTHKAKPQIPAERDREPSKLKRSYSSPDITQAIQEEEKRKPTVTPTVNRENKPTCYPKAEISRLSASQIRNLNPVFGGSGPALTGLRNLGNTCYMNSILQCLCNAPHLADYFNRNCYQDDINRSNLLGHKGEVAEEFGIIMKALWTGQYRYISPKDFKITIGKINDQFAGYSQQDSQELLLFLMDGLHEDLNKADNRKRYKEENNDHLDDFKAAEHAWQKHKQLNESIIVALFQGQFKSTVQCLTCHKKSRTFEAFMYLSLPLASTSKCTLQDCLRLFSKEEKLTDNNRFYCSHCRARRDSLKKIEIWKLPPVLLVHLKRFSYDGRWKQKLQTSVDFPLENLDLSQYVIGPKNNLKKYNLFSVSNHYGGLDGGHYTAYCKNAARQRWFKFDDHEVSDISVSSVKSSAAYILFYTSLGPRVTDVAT
With `O=C(O)c1ccccc1C(=O)Nc1ccc(SC(C(=O)Nc2ccccc2Cl)c2ccccc2)cc1` (centres undefined) the IC50 was > 40 µM (inactive). For `Cc1cc(=O)n2c3c(c4c(cc13)c(CO)cc(=O)n4C)OC2`, the IC50 was 22.6 µM. With `N=C1/C(=C/c2cn(Cc3ccccc3)c3ccccc23)C(=O)N=C2SC(C(F)(F)F)=NN12` the IC50 was > 40 µM (inactive). For `O=C(/C=C/c1ccco1)N1CCC(Cn2cccn2)CC1`, the IC50 was > 40 µM (inactive). With `CCOc1ccc(S(=O)(=O)Nc2ccc[nH]c2=O)cc1` the IC50 was > 40 µM (inactive). In the case of `Cc1ccccc1-c1noc(-c2cn(Cc3ccc(NC(=O)Cc4ccccc4)cc3)cn2)n1`, the IC50 is reported as > 40 µM (inactive). In the case of `CC(C)=CCC/C(C)=C/COc1ccc(/C=C2\C(=O)N(O)[C@@H](C)C(=O)N2O)cc1`, the IC50 is reported as > 40 µM (inactive). `Cc1cccc(NC(=O)c2noc3c2CCc2sccc2-3)n1` was tested, and the IC50 was > 40 µM (inactive). `Cc1nc(-c2ccccc2)sc1-c1nc(-c2ccccc2)ncc1S(=O)(=O)c1ccccc1` was tested, and the IC50 was > 40 µM (inactive). For `Cc1nn(-c2ccccc2)c2c1nc(CCC(=O)NC1CCCCC1)c(=O)n2C`, the IC50 was > 40 µM (inactive). `O=C(Cn1c(COc2ccccc2)nc2ccccc21)Nc1ccc(N2CCOCC2)cc1` was tested, and the IC50 was > 40 µM (inactive). With `COc1ccc(/C=C/C(=O)Nc2cccc(S(=O)(=O)Nc3ccccc3Cl)c2)c(OC)c1` the IC50 was > 40 µM (inactive). `O=C1CC(C(=O)Nc2ccc3c(c2)OCO3)n2nc(SCc3ccccc3)nc2N1` (centres undefined) was tested, and the IC50 was > 40 µM (inactive). In the case of `Cn1c(=O)[nH]c(=O)c2c1nc(N1CCc3ccccc3C1)n2CCSc1nnnn1-c1ccccc1`, the IC50 is reported as > 40 µM (inactive). In the case of `CC(=O)c1ccc(N2CCN(S(=O)(=O)c3cc4c(cc3C)NC(=O)CO4)CC2)cc1`, the IC50 is reported as > 40 µM (inactive). With `CC(=O)c1cccc(NC(=O)COC(=O)c2sc3cc(F)ccc3c2Cl)c1` the IC50 was > 40 µM (inactive). With `COc1ccc(CCNC(=O)Cn2c(=O)c3sccc3n(Cc3cccc([N+](=O)[O-])c3)c2=O)cc1OC` the IC50 was > 40 µM (inactive). Molecule `O=C(/C=C/c1ccc(F)cc1)N1CCc2ccccc2C1` has an IC50 of 26 µM. In the case of `COc1cccc2cc(-c3nnc(SCC(=O)c4ccc(F)cc4)n3C)oc12`, the IC50 is reported as > 40 µM (inactive). In the case of `Cc1ccccc1-c1nnc2sc(COc3ccc(Cl)cc3)nn12`, the IC50 is reported as > 40 µM (inactive). `Cc1cccc(C(=O)Nc2cccc(SC(C(=O)Nc3ccc(Cl)c(C(=O)O)c3)c3ccccc3)c2)c1` (centres undefined) was tested, and the IC50 was 23.4 µM. In the case of `O=C(CN1C(=O)c2ccccc2C1=O)Nc1nc(-c2ccc(Br)cc2)cs1`, the IC50 is reported as > 40 µM (inactive). In the case of `Cc1cc(CN2CCCCC2c2cc(=O)n3ccnc3[nH]2)no1` (centres undefined), the IC50 is reported as > 40 µM (inactive). Work on `O=C1Cc2ccccc2C(=O)N1c1ccc2c(c1)OCO2` yielded an IC50 of 38.3 µM. `Cc1ccc(NC(=O)c2cc(-c3cccnc3)n[nH]2)cc1F` was tested, and the IC50 was > 40 µM (inactive). For `O=C(CSc1oc(-c2ccc(F)cc2)nc1S(=O)(=O)c1ccc(F)cc1)Nc1ccc(F)cc1`, the IC50 was > 40 µM (inactive). In the case of `Cc1ccc(Cn2c(C(=O)O)c(CNCc3ccco3)c3ccccc32)cc1`, the IC50 is reported as > 40 µM (inactive). `Oc1cccc2c(-c3ccc(O)c4c(O)cccc34)ccc(O)c12` was tested, and the IC50 was > 40 µM (inactive). In the case of `CCOC(=O)N1CCC(NC(=O)c2cc(C(=O)Nc3ccc(S(=O)(=O)N4CCCCC4)cc3)ccc2CO)CC1`, the IC50 is reported as > 40 µM (inactive). For `COc1ccccc1/C=C/C(=O)NC(Cc1ccccc1)c1nc2ccccc2[nH]1` (centres undefined), the IC50 was > 40 µM (inactive). For `O=C(NC1CCCC1)C1CC(=O)N(c2cccc(-c3noc(-c4cccs4)n3)c2)C1` (centres undefined), the IC50 was > 40 µM (inactive). For `CCOCc1ccc(C(=O)N[C@H](C)c2nc3cc(-c4ccc(OC)cc4)ncn3n2)cc1`, the IC50 was > 40 µM (inactive). With `COc1ccc(NC(=O)Cn2cc(C(=O)c3ccc(F)cc3)c(=O)c3cc(C)ccc32)cc1OC` the IC50 was > 40 µM (inactive). With `O=C(Nc1cccc2ccccc12)N1CCC(c2nc3c(nnn3Cc3ccc(F)cc3)c(=O)[nH]2)CC1` the IC50 was > 40 µM (inactive). For `CCn1cc2c(n1)c(=O)n(Cc1ccc(C)cc1)c(=O)n2CC(=O)Nc1ccc(F)cc1`, the IC50 was > 40 µM (inactive). `CCOc1ccc(-c2ccc3nnc(SCC(=O)Nc4ccc(F)cc4)n3n2)cc1` was tested, and the IC50 was > 40 µM (inactive). Work on `COc1ccc(-c2ccc3cc(C(=O)O)ccc3c2)cc1C12CC3CC(CC(C3)C1)C2` yielded an IC50 of 8.03 µM. For `O=C(CN1C(=O)c2cccc3cccc1c23)NCCSCc1ccc(Cl)c(Cl)c1`, the IC50 was > 40 µM (inactive). In the case of `O=C(Cn1c(=O)c2sccc2n(Cc2ccc([N+](=O)[O-])cc2)c1=O)NCCc1ccccc1`, the IC50 is reported as > 40 µM (inactive). `CC1=CC(=O)C(C2=C(O)C(=O)C(C)=CC2=O)=C(O)C1=O` gave an IC50 of 9.22 µM. In the case of `O=C(CN1CC=C(c2ccccc2)CC1)Nc1ccc(S(=O)(=O)N2CCOCC2)cc1`, the IC50 is reported as > 40 µM (inactive). For `CC(OC(=O)c1cc(S(=O)(=O)Nc2ccccc2F)ccc1Cl)C(=O)Nc1ccc([N+](=O)[O-])cc1C(F)(F)F` (centres undefined), the IC50 was > 40 µM (inactive). With `O=C(NCc1ccc(F)cc1)c1cccc(Nc2nc3ccccc3n3cnnc23)c1` the IC50 was > 40 µM (inactive). For `Cc1ccc2[nH]cc(S(=O)(=O)c3cc(F)cc(F)c3)c(=O)c2c1`, the IC50 was > 40 µM (inactive). For `CCCC(O)CCCCCCCc1cc(O)cc(O)c1C(=O)OC(CCC)CCCCCCCc1cc(O)cc(O)c1` (centres undefined), the IC50 was > 40 µM (inactive). With `COCC(=O)N1CCC(n2c(C3CC3)nc3sc(C)c(C)c3c2=O)CC1` the IC50 was > 40 µM (inactive). Molecule `O=C1c2c(O)c(Cl)cc3c2[C@@]2(Oc4ccc(O)c5c4[C@]3(O2)[C@@H]2O[C@@H]2C5=O)[C@@H]2O[C@H]12` has an IC50 of 1.09 µM. `Cc1ccc(S(=O)(=O)NCc2ccc(C(=O)NCCc3ccc(S(N)(=O)=O)cc3)cc2)cc1` was tested, and the IC50 was > 40 µM (inactive). For `Cc1cc(C)c2nc3c(cc2c1)CN(Cc1ccco1)C(=O)O3`, the IC50 was > 40 µM (inactive). `O=C(Nc1ccc(F)cc1F)c1cc(-c2ccccn2)n[nH]1` was tested, and the IC50 was > 40 µM (inactive). `COc1ccc(NC(=O)CC(=O)c2ccc([N+](=O)[O-])cc2)cc1S(=O)(=O)Nc1ccc(Br)cc1` was tested, and the IC50 was > 40 µM (inactive). `O=C(O)C1C(C(=O)Nc2ccccc2)C2(c3ccccc3)C(=O)C1(c1ccccc1)C(c1ccccc1)=C2c1ccccc1` (centres undefined) gave an IC50 of 15.4 µM. `O=C(CC1C(=O)Nc2nc(-c3ccccc3)nn21)Nc1cccc2ccccc12` (centres undefined) was tested, and the IC50 was > 40 µM (inactive). For `COc1ccc(-c2nc3n(n2)C(CC(=O)Nc2cccc4ccccc24)C(=O)N3)cc1` (centres undefined), the IC50 was > 40 µM (inactive). `N#Cc1cn2c(nc1-c1ccc(Cl)cc1)nc1ccccc12` was tested, and the IC50 was > 40 µM (inactive). In the case of `CCn1cc2c(n1)c(=O)n(Cc1ccccc1)c(=O)n2CC(=O)Nc1ccc(C)cc1C`, the IC50 is reported as 24.4 µM. For `Cc1ccc2[nH]c(=O)c(-c3nc4ccc(C)cn4c3NCc3ccc(F)cc3)cc2c1`, the IC50 was > 40 µM (inactive). For `COc1ccc(-c2cc3nc([C@H](C)NC(=O)Cc4ccccc4C)nn3cn2)cc1`, the IC50 was > 40 µM (inactive). With `CCOc1ccc2c(c1)c(=O)c(C(=O)c1ccc(F)cc1)cn2CC(=O)Nc1ccccc1` the IC50 was > 40 µM (inactive). `O=C(Nc1ccccc1)[C@@H]1[C@@H]2C(=O)N(c3ccc([N+](=O)[O-])cc3)C(=O)[C@@H]2[C@H]2c3ccccc3C=CN12` was tested, and the IC50 was 34 µM. With `CC(NC(=O)c1ccccc1)c1nc2ccccc2n1CC(=O)Nc1ccc2c(c1)OCO2` (centres undefined) the IC50 was > 40 µM (inactive). In the case of `O=C(CNC(=O)OCc1ccccc1)Nc1ccc(Br)cc1C(=O)c1ccccc1Cl`, the IC50 is reported as > 40 µM (inactive). `O=C(Nc1ccccc1)Nc1ccc(F)c(-c2nnc(-c3ccccc3)o2)c1` was tested, and the IC50 was > 40 µM (inactive). For `Cn1c(SCC(=O)c2ccc(F)cc2)nnc1-c1cc2ccccc2o1`, the IC50 was > 40 µM (inactive). In the case of `Cc1ccc(CNCc2cc3c(-c4ccc(F)cc4)nn(-c4ccccc4)c3[nH]c2=O)cc1`, the IC50 is reported as > 40 µM (inactive). `CCCCNC(=O)CSc1nnc(-c2cc3ccccc3n2C)o1` was tested, and the IC50 was > 40 µM (inactive). In the case of `CC(C)c1nnc(NC(=O)C2CC(=O)N(CCc3ccc(F)cc3)C2)s1` (centres undefined), the IC50 is reported as > 40 µM (inactive). In the case of `CCOc1ccc2nc(NC(=O)c3ccc4ccccc4n3)sc2c1`, the IC50 is reported as > 40 µM (inactive). `O=C(c1cc(S(=O)(=O)Nc2ccc(Cl)cc2)ccc1Cl)N1CCCc2ccccc21` was tested, and the IC50 was > 40 µM (inactive). With `Cc1cc(=O)[nH]c(NC2CCN(S(=O)(=O)c3ccccc3C(F)(F)F)CC2)n1` the IC50 was > 40 µM (inactive). In the case of `COc1ccccc1CNC(=O)CCCCn1c(=O)c2ccccc2n(CC(=O)Nc2ccc(C)cc2C)c1=O`, the IC50 is reported as > 40 µM (inactive). With `Cc1ccc(-n2nnnc2-c2cnc3cc(Cl)ccc3c2N)cc1` the IC50 was > 40 µM (inactive). `CC(C)Cc1ccc(-c2cc(-c3ccc(C(F)(F)F)cc3)c(C#N)c(=O)[nH]2)cc1` was tested, and the IC50 was > 40 µM (inactive). `Cc1cc(=O)n(CC(=O)Nc2ccccc2C)c(Nc2ccc(F)cc2)n1` was tested, and the IC50 was > 40 µM (inactive). `CC1=C(C)C(N(c2ccccc2)c2ccccc2)N(CCC(C)C)C1=O` (centres undefined) showed an IC50 of 37.7 µM. With `CC1(C)Cc2c(c(-c3ccco3)nc3sc4c(SCCCc5ccccc5)ncnc4c23)CO1` the IC50 was 24 µM. For `Cc1cc(NS(=O)(=O)c2ccc(NC(=O)COc3ccc(Cl)cc3)cc2)no1`, the IC50 was > 40 µM (inactive). For `CNc1ncc(C(=O)N2CCOC(C(=O)N3CCCCCC3)C2)cn1` (centres undefined), the IC50 was > 40 µM (inactive). In the case of `COc1ccc(OC)c(NC(=O)c2sc(-c3ccccc3)nc2C)c1`, the IC50 is reported as > 40 µM (inactive). `Cc1ccc(C(=O)O)cc1NC(=O)C(Sc1cccc(NC(=O)c2cccc(Cl)c2)c1)c1ccccc1` (centres undefined) was tested, and the IC50 was > 40 µM (inactive). `O=C(CCn1c(=O)c2ccccc2n(Cc2ccccc2F)c1=O)NCc1ccco1` was tested, and the IC50 was > 40 µM (inactive). `Cc1noc(-c2cc(=O)n(CC(=O)Nc3ccccc3Cl)c3ccccc23)n1` was tested, and the IC50 was > 40 µM (inactive). In the case of `COCCCNC(=O)c1ccc(Cn2c(=O)c3ccccc3n(CC(=O)Nc3ccc(OC)cc3)c2=O)cc1`, the IC50 is reported as > 40 µM (inactive). With `CCn1c(SCC(=O)c2c(N)n(CC(C)C)c(=O)n(C)c2=O)nnc1-c1ccccc1` the IC50 was > 40 µM (inactive). `COc1cc2c(=O)n(Cc3ccccc3)c(=O)n(CC(=O)N3CCCc4ccccc43)c2cc1OC` was tested, and the IC50 was > 40 µM (inactive). With `CCc1ccc(OCCn2c(CCNC(=O)C3CCCCC3)nc3ccccc32)cc1` the IC50 was > 40 µM (inactive). With `CSc1cccc(NC(=O)C2C3C=CC4(O3)C2C(=O)N(CCc2ccccc2)C4C(=O)NC2CCCCC2)c1` (centres undefined) the IC50 was > 40 µM (inactive). `COc1cccc(-n2cnc3cc(C(=O)NCCc4ccccc4)ccc3c2=O)c1` was tested, and the IC50 was > 40 µM (inactive). With `COc1ccc(CCN2COc3c(cc(Cl)c4cccnc34)C2)cc1OC` the IC50 was > 40 µM (inactive).
